From patent publication US11992479B2, “R-fadrozole for use in the treatment of aldostonerism” (priority 2018, dated 2024)
Where two headings read alike, the source gives them in different places.

Assays:
[1] = system: 11β-deoxycorticosterone (DOC); conditions: once daily DP13, 4-16 mg
Source text: The diet consisted of 70-80 mEq/day of sodium and 80-90 mEq/day of potassium. Blood samples were obtained daily at the time points indicated in the accompanying Tables for measurements of aldosterone, 11β-deoxycorticosterone (DOC), and potassium (K^+). All of the blood samples were obtained while the subjects were seated in a resting state.
DOC was quantified by an LC-MS/MS methodology. In preparation the steroids were extracted using the Absolute/DQStereo17 Kit from Biocrates Life Sciences AG, Innsbruck, Austria. The steroids were extracted and subjected to LC-MS/MS analysis according to the manufacturer's instructions. The triple quadrupole mass spectrometer (Waters 1-Class 2D UPLC Xevo TQ-S was calibrated using the standards provided in the kit. The assays were performed as provided by the manufacturers.

[2] = for AUC0-tau: geometric mean ± geometric CV %
Procedure: There were 6 subjects treated with each dose and twelve subjects treated with placebo (two placebo-treated-subjects included with each dose group).
The blood samples were collected in K2EDTA, centrifuged and the plasma stored at −80° C. The samples were prepared for analysis by liquid/liquid extraction as follows. A 50 μL aliquot was extracted with 25 μL of methanol:water (50:50) and mixed; following which 250 μL of ammonia acetate 100 mM:ammonia hydroxide (95:5) was added and the solution was mixed. 750 μL of ethyl acetate was then added and mixed by aspirating and centrifuged at approximately 2500×g for 5 min. 400 μL of the organic layer was collected and evaporated under nitrogen at 40° C. The dried sample was reconstituted in 200 μL of ammonia acetate 10 mM:methanol:ammonia hydroxide (70:30:0.35) and centrifuged at 2000×g for 5 min. at room temperature. The extracted sample was then subjected to liquid chromatography using a Waters, Acquity, UPLC with a Gemini 3 μm NX-C18, 5×2 mm column. An injection volume of 8 μL was analyzed using Mobil phase A consisting of ammonium acetate 10 mM:ammonium hydroxide (100:0.5) and Mobile phase B consisting of methanol. The purified sample was then analyzed by mass spectrometry (LC-MS/MS). […] The effective calibration range was 0.2 to 200 ng/ml.

N#Cc1ccc([C@H]2CCCc3cncn32)cc1.O=P(O)(O)O [DP13, (R)-(+)-5-(p-cyanophenyl)-5,6,7,8-tetrahydroimidazolium[1,5-a]pyridine dihydrogen phosphate]
highest individual DOC value [1]: 1.92 ng/mL
highest mean increase in DOC [1]: 0.52 ng/mL
AUC0-t ([2]; 1 mg single oral dose, Day 1): 45.8 ± 4.16 ng·h/mL
Cmax ([2]; 1 mg single oral dose, Day 1): 4.68 ± 0.38 ng/mL
T1/2 ([2]; 1 mg single oral dose, Day 1): 8.19 ± 0.43 h
Tmax ([2]; 1 mg single oral dose, Day 1): 2.00 ± 0.49 h
AUC0-t ([2]; 2 mg single oral dose, Day 1): 133 ± 27.41 ng·h/mL
Cmax ([2]; 2 mg single oral dose, Day 1): 12.0 ± 1.71 ng/mL
T1/2 ([2]; 2 mg single oral dose, Day 1): 11.3 ± 1.28 h
Tmax ([2]; 2 mg single oral dose, Day 1): 2.08 ± 0.36 h
AUC0-t ([2]; 4 mg once daily oral, Day 1): 139 ± 15.0 ng·h/mL
AUC0-∞ ([2]; 4 mg once daily oral, Day 1): 167 ± 22.0 ng·h/mL
Cmax ([2]; 4 mg once daily oral, Day 1): 14.0 ± 1.6 ng/mL
T1/2 ([2]; 4 mg once daily oral, Day 1): 8.47 h
Tmax ([2]; 4 mg once daily oral, Day 1): 2.08 ± 0.28 h
AUC0-t ([2]; 4 mg once daily oral, Day 8): 154 ± 20.5 ng·h/mL
AUC0-∞ ([2]; 4 mg once daily oral, Day 8): 154 ± 20.5 ng·h/mL
Cmax ([2]; 4 mg once daily oral, Day 8): 15.1 ± 1.1 ng/mL
T1/2 ([2]; 4 mg once daily oral, Day 8): 8.58 ± 1.1 h
Tmax ([2]; 4 mg once daily oral, Day 8): 1.92 ± 0.35 h
AUC0-tau ([2]; 4 mg, Day 1): 134 ± 29.2 ng·h/mL
AUC0-tau ([2]; 4 mg, Day 8): 148 ± 33.0 ng·h/mL
AUC0-t ([2]; 8 mg once daily oral, Day 1): 281 ± 24.2 ng·h/mL
AUC0-∞ ([2]; 8 mg once daily oral, Day 1): 335 ± 31.5 ng·h/mL
Cmax ([2]; 8 mg once daily oral, Day 1): 29.4 ± 2.5 ng/mL
T1/2 ([2]; 8 mg once daily oral, Day 1): 8.82 ± 0.4 h
Tmax ([2]; 8 mg once daily oral, Day 1): 1.81 ± 0.25 h
AUC0-t ([2]; 8 mg once daily oral, Day 8): 338 ± 28.5 ng·h/mL
AUC0-∞ ([2]; 8 mg once daily oral, Day 8): 338 ± 28.5 ng·h/mL
Cmax ([2]; 8 mg once daily oral, Day 8): 37.9 ± 3.9 ng/mL
T1/2 ([2]; 8 mg once daily oral, Day 8): 8.92 ± 0.5 h
Tmax ([2]; 8 mg once daily oral, Day 8): 1.56 ± 0.26 h
AUC0-tau ([2]; 8 mg, Day 1): 274 ± 24.9 ng·h/mL
AUC0-tau ([2]; 8 mg, Day 8): 331 ± 22.5 ng·h/mL
AUC0-t ([2]; 16 mg once daily oral, Day 1): 610 ± 34.7 ng·h/mL
AUC0-∞ ([2]; 16 mg once daily oral, Day 1): 740 ± 65.8 ng·h/mL
Cmax ([2]; 16 mg once daily oral, Day 1): 66.8 ± 6.1 ng/mL
T1/2 ([2]; 16 mg once daily oral, Day 1): 9.04 ± 0.8 h
Tmax ([2]; 16 mg once daily oral, Day 1): 1.88 ± 0.41 h
AUC0-t ([2]; 16 mg once daily oral, Day 8): 725 ± 51.4 ng·h/mL
AUC0-∞ ([2]; 16 mg once daily oral, Day 8): 725 ± 51.4 ng·h/mL
Cmax ([2]; 16 mg once daily oral, Day 8): 77.4 ± 6.9 ng/mL
T1/2 ([2]; 16 mg once daily oral, Day 8): 9.67 h
Tmax ([2]; 16 mg once daily oral, Day 8): 1.88 ± 0.40 h
AUC0-tau ([2]; 16 mg, Day 1): 603 ± 15.8 ng·h/mL
AUC0-tau ([2]; 16 mg, Day 8): 714 ± 19.1 ng·h/mL
absorption (Tmax) ([2]; all dose levels): absorbed rapidly at all dose levels
dose proportionality of Cmax and AUC0-∞ ([2]; all dose levels): dose-proportional
